Laboratory results reported in ChEMBL document CHEMBL1201862, “PubChem BioAssay data set” (2004).
Active and inactive are the calls of the source.

Experiments:
[1] = target: G-protein coupled receptor 55 (Homo sapiens, UniProt Q9Y2T6); experiment: GPR55 antagonists blocking LPI-driven arrestin recruitment, primary screen, imaging, U2OS, beta-arrestin-GFP, LPI agonist (AID 2013); format: functional;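 note: antagonist potency measured as reduced agonist-driven arrestin aggregation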
[2] = P. falciparum late gametocyte killing, dose response, luminescence (AID 1117278); format: functional, cell-based;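 note: gametocytes exposed to compound for 24 hours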
[3] = Jurkat T cell cytotoxicity, dose response, cytotoxicity control for P. falciparum gametocyte viability project, luminescence (AID 1117277); format: functional, cell-based;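 note: potency reflects loss of cellular ATP meaning fewer viable cells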
[4] = target: T1, Heat shock factor protein 1 (Mus musculus, UniProt P38532); experiment: HSF1 potentiators in luciferase reporter cells, confirmation, cell-based, NIH3T3, luminescence, dose retest (AID 435004); format: functional;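 note: stress induced by proteasome inhibitor MG132 added 30 min after compound; luciferase reporter driven by HSF1 response element in NIH3T3 cells; actives raise luminescence as potentiators of the MG132 stress response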
T1 sequence (P38532 whole entry): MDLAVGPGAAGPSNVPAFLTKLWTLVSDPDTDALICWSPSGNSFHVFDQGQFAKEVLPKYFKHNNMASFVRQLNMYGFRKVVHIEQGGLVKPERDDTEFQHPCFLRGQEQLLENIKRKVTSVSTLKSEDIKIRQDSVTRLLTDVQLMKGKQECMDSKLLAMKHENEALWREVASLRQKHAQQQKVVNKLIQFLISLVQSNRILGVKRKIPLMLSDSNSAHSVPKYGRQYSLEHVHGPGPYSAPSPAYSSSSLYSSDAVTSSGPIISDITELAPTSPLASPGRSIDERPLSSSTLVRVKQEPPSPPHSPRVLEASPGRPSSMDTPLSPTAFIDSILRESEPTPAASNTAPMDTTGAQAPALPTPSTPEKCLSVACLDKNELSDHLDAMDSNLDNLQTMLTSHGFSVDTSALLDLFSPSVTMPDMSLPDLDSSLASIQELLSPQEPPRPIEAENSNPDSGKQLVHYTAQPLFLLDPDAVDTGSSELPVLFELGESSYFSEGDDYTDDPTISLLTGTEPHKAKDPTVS

[5] = target: T2, Cytochrome P450 1A2 (Homo sapiens, UniProt P05177);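 note: PubChem cytochrome P450 panel assay, CYP1A2 panel member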
T2 sequence (P05177 whole entry): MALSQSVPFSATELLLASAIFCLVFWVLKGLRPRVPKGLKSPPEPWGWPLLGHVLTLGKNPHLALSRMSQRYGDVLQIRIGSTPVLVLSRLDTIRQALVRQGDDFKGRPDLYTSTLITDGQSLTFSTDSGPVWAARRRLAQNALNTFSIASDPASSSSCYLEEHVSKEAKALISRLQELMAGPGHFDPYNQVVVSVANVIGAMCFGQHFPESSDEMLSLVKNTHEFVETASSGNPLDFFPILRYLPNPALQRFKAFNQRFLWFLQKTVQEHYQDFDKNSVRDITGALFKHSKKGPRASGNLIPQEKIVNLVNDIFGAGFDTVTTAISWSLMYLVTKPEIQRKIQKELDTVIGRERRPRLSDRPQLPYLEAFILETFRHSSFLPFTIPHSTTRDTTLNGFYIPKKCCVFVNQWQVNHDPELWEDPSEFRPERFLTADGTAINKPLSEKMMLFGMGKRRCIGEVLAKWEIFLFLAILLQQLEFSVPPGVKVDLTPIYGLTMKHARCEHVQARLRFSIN

[6] = cytotoxicity in HEK-293T NF-kB-Luc cells, dose response, cytotoxicity control for B/T-cell NF-kB inhibitor project, cell-based, uHTS hits (AID 489019); format: functional;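 note: IC50 reflects cytotoxicity as loss of cell viability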
[7] = Shn3 3'UTR reporter inhibitors, dose response, cell-based, Clone20 osteoblasts, firefly luciferase, cherry-picked (AID 624132); format: functional;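 note: firefly luciferase luminescence from reporter carrying the Shn3 3'UTR in osteoblasts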
[8] = control 3'UTR Renilla luciferase suppression, dose response, counter-screen for Shn3 inhibitor project, cell-based, Clone20-Shn3RL, cherry-picked (AID 624133); format: functional
[9] = target: T3, COUP transcription factor 2 (Homo sapiens, UniProt P24468); experiment: Luminescence-based cell-based high throughput dose response assay to identify inhibitors of COUP-TFII (NR2F2).; format: functional;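 note: HEK293 cells transiently cotransfected with COUP-TFII expression vector and reporter; luciferase reporter luminescence driven by COUP-TFII from the pX2-168 reporter plasmid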
T3 sequence (P24468 whole entry): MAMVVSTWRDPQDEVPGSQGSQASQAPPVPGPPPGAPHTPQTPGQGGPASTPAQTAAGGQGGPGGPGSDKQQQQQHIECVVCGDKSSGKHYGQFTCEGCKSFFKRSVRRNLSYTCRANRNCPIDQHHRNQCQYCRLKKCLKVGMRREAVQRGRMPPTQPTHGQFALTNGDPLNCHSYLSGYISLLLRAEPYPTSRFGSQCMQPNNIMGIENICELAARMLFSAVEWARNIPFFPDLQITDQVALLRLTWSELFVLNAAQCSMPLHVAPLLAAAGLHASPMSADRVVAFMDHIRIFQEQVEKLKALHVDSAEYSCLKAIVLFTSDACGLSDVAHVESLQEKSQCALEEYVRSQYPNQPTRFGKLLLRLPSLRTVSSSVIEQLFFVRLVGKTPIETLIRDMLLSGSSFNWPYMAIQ

[10] = cells; format: functional, cell-based; conditions: HEK-CNG
[11] = test system: INS1; experiment: beta cell apoptosis inhibitors, cytokine rescue, dose response, luminescence, retest (AID 449756); format: functional, cell-based; conditions: Rattus norvegicus;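 note: cell death triggered by IL-1 beta plus TNF-alpha plus IFN-gamma mixture; protective hits raise ATP signal compared with cytokine alone wells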
[12] = HepG2 cell cytotoxicity, dose response, cytotoxicity control for Shn3 inhibitor project, CellTiter-Glo, cherry-picked (AID 624134); format: functional, cell-based
[13] = target: T4, Galanin receptor type 3 (Homo sapiens, UniProt O60755); experiment: Fluorescence-based cell-based primary high throughput dose response assay to identify antagonists of the Galanin Receptor 3 (GalR3).; format: functional
T4 sequence (O60755 whole entry): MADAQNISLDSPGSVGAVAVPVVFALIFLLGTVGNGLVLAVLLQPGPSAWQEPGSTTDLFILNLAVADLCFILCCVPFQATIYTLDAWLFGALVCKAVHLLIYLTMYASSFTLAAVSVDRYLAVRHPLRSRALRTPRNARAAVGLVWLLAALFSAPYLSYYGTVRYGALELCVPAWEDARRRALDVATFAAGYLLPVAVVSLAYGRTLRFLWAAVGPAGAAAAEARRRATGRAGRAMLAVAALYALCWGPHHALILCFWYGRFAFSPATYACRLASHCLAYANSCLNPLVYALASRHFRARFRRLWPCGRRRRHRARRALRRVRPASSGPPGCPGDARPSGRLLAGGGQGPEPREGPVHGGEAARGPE

[14] = test system: Jurkat; experiment: antigen receptor-induced NF-kB inhibitors, dose response, Jurkat, luciferase reporter, luminescence, B- and T-cell (AID 489004); format: functional, cell-based; conditions: Homo sapiens;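 note: NF-kB luciferase reporter Jurkat cells stimulated with PMA plus ionomycin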
[15] = target: Peroxisome proliferator-activated receptor gamma/Nuclear receptor coactivator 1 (Homo sapiens, UniProt P37231); experiment: (§1) TR-FRET dose response biochemical High Throughput Screening assay for agonists of the steroid receptor coactivator 1 (SRC-1) recruitment by the peroxisome proliferator-activated receptor gamma (PPAR gamma): non-selective agonists. [Related pubchem assays (depositor defined):AID1300, AID1808, AID504735, AID631]; format: protein assay
[16] = target: 5-hydroxytryptamine receptor 2A (Mus musculus, UniProt P35363); format: functional, cell-based;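 note: CHO-K1 cells with tagged receptor and beta-arrestin; agonist potency measured as compound-induced activation of the receptor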
[17] = target: Mu-type opioid receptor (Homo sapiens, UniProt P35372); format: functional, cell-based;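 note: U2OS cells with beta-arrestin recruitment to OPRM1 by beta-gal complementation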
[18] = target: Peroxisome proliferator-activated receptor gamma/Nuclear receptor coactivator 3 (Homo sapiens, UniProt P37231); experiment: as §1, with “3 (SRC-3)” for “1 (SRC-1)”, “assays: 1301 (Confirmation screen.), 1048 (Primary screen.)]” for “assays (depositor defined):AID1300, AID1808, AID504735, AID631]”; format: functional
[19] = target: Peroxisome proliferator-activated receptor gamma/Nuclear receptor coactivator 2 (Homo sapiens, UniProt P37231); experiment: TR-FRET dose response biochemical High Throughput Screening assay for agonists of the steroid receptor coactivator 2 (SRC-2) recruitment by the peroxisome proliferator-activated receptor gamma (PPAR gamma): non-selective agonists. [Related pubchem assays: 1297, 1032 ]; format: functional
[20] = target: T5, Ubiquitin-conjugating enzyme E2 N (Homo sapiens, UniProt P61088); format: functional;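 note: Dose-response confirmation in a TR-FRET assay detecting UBC13-driven polyubiquitin chain formation, inhibition measured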
T5 sequence (P61088 whole entry): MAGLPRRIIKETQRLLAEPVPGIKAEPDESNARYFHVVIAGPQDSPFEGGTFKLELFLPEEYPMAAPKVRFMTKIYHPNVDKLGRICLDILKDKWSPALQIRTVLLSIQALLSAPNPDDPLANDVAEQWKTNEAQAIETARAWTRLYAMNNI

[21] = target: Troponin, cardiac muscle (Homo sapiens, UniProt P19429+P45379+P63316); experiment: Fluorescence-based biochemical high throughput dose response assay for activators of the calcium sensitivity of cardiac Regulated Thin Filaments (RTF). [Related pubchem assays (depositor defined):AID493008, AID493018, AID504382, AID504383]; format: protein-complex assay

Sequence of 5-hydroxytryptamine receptor 2A (P35363 whole entry): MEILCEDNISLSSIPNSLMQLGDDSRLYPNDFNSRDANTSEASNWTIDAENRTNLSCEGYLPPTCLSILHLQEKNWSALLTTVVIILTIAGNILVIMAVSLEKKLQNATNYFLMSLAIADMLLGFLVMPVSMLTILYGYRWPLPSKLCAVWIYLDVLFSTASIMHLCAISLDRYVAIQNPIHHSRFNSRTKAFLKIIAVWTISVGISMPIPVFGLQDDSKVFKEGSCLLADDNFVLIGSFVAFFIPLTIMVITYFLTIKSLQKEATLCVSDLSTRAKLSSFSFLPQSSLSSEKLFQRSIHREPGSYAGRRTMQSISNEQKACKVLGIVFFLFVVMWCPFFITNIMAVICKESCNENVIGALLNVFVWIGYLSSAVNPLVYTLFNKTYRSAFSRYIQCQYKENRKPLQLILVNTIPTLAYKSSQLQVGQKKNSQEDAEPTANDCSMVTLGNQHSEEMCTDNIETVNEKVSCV
Sequence of G-protein coupled receptor 55 (Q9Y2T6 whole entry): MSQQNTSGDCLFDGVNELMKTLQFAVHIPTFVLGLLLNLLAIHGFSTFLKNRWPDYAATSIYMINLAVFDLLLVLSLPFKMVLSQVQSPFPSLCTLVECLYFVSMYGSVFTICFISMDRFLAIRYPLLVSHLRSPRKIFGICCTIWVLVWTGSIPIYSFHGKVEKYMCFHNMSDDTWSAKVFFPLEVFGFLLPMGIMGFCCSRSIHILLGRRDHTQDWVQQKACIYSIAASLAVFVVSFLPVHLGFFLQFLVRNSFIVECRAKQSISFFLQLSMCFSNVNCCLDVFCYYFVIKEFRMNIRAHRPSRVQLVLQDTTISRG
Sequence of Peroxisome proliferator-activated receptor gamma/Nuclear receptor coactivator 1 (P37231 whole entry): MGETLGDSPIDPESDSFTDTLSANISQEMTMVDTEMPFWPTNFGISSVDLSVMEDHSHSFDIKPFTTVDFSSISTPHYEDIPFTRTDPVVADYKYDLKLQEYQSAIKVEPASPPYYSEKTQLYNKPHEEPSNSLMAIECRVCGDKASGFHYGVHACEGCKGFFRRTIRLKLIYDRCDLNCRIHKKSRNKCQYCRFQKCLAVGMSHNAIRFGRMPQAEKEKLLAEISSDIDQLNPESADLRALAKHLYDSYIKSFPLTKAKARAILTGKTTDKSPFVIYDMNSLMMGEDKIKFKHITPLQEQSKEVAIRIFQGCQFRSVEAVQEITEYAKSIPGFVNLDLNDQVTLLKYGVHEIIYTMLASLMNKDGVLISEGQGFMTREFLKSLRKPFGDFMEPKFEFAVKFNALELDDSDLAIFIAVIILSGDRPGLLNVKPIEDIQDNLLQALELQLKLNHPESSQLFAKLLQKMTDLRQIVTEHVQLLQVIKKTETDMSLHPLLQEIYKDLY
Sequence of Peroxisome proliferator-activated receptor gamma/Nuclear receptor coactivator 1 (Q15788 whole entry, further chain): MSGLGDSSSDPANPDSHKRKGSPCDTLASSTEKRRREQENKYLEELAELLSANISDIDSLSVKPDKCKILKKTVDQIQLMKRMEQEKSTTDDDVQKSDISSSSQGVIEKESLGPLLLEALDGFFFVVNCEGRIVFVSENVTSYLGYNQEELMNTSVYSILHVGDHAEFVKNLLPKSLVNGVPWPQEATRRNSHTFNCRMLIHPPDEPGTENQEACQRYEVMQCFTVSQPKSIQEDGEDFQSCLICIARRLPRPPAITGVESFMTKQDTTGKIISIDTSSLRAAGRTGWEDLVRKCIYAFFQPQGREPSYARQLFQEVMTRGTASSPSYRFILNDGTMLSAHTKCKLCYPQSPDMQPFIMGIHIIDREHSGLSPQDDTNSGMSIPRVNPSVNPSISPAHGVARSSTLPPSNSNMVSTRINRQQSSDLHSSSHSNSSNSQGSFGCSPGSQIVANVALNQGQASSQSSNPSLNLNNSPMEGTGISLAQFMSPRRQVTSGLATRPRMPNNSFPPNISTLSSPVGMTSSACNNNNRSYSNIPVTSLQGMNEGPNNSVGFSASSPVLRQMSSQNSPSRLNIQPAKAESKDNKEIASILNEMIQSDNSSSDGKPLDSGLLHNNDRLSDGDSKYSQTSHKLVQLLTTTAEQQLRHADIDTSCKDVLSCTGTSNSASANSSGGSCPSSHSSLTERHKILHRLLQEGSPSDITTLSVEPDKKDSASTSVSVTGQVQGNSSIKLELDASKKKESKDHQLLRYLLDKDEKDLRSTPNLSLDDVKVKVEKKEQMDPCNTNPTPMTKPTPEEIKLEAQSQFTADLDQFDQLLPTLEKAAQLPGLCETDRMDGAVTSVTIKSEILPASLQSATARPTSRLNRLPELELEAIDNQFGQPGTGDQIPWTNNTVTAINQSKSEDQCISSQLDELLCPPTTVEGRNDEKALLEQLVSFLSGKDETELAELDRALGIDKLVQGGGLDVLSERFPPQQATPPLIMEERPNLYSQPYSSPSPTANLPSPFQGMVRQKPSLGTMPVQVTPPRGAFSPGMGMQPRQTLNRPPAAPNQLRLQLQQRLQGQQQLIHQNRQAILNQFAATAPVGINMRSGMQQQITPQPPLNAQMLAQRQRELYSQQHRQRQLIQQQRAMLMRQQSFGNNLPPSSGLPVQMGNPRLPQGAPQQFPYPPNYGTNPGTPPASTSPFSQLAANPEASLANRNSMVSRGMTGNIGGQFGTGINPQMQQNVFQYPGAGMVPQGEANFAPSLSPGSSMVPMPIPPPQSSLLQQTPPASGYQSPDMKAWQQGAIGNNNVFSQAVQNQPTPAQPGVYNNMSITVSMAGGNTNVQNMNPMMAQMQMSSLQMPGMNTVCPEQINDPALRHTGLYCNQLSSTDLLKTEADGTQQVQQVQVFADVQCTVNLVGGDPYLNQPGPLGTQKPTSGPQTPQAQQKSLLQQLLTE
Sequence of Peroxisome proliferator-activated receptor gamma/Nuclear receptor coactivator 3 (P37231 whole entry): as the sequence (P37231 whole entry) above
Sequence of Peroxisome proliferator-activated receptor gamma/Nuclear receptor coactivator 3 (Q9Y6Q9 whole entry, further chain): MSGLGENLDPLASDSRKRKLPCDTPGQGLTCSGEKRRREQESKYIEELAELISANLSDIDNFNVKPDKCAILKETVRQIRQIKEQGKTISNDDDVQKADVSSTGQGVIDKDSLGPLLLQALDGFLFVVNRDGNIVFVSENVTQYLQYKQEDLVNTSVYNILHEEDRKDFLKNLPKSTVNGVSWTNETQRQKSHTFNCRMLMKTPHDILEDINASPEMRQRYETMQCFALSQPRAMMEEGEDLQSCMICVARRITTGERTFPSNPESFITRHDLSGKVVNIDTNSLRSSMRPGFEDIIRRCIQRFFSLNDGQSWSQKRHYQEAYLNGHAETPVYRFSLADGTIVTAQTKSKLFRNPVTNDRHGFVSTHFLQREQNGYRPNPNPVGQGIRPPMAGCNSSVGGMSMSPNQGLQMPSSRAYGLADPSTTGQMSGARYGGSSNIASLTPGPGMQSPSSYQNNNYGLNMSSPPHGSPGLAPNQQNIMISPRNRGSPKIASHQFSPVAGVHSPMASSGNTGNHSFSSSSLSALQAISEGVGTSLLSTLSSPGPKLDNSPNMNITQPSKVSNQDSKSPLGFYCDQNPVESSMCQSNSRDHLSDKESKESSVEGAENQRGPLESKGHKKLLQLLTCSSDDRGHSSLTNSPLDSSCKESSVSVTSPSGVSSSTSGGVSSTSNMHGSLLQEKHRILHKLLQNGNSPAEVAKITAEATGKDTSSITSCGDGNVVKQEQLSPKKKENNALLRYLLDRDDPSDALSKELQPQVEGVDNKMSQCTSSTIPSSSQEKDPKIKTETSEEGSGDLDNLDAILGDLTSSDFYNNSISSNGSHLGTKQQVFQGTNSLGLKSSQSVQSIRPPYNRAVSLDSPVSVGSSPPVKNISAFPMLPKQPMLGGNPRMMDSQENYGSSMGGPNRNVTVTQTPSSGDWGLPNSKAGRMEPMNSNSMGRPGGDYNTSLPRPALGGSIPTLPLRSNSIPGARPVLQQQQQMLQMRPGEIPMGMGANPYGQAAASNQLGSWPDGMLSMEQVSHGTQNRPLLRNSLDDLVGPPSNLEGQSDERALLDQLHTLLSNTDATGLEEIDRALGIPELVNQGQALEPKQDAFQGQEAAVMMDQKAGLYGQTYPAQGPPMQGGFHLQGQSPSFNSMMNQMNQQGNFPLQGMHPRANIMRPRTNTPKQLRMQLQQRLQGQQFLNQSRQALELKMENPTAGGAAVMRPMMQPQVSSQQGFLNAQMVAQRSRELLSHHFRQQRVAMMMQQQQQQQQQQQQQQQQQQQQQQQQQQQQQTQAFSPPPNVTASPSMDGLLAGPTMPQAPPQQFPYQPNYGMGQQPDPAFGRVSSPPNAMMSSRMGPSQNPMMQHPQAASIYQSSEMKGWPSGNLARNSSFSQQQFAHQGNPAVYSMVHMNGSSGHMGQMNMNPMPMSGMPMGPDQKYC
Sequence of Mu-type opioid receptor (P35372 whole entry): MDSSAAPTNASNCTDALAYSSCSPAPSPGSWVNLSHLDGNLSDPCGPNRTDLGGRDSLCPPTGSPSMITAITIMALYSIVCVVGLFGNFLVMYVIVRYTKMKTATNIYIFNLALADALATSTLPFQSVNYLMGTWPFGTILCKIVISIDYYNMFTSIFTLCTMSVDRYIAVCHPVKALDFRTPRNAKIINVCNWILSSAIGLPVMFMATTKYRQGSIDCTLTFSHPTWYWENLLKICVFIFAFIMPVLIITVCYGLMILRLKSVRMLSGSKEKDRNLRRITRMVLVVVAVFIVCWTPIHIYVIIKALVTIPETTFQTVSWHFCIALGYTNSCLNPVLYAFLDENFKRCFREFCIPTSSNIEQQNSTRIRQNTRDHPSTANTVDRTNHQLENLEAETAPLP

In the case of `N#CCC(=O)Nc1ccc(C(=O)OCC(=O)Nc2ccccc2Sc2ccccc2)cc1`, the IC50 [1] is reported as 2.17 µM (active), the IC50 [2] is reported as > 109 µM (inactive) and the IC50 [3] is reported as > 83.3 µM (inactive). The EC50 [4] was > 260 µM (inactive).

In the case of `COc1ccc(C(=O)N2CCC3(CCCN(C(=O)NC(C)C)C3)CC2)cc1`, the AC50 [5] is reported as “inactive”.

In the case of `CCOc1cc(S(=O)(=O)NCc2ccncc2)ccc1Cl`, the IC50 [6] is reported as > 80 µM (inactive), the AC50 [7] is reported as < 0.26 µM (active) and the AC50 [8] is reported as < 0.26 µM (active). For the same compound, the IC50 [9] was 2.29 µM (active), the EC50 [10] was > 29.9 µM (inactive) and the AC50 [11] was 0.848 µM (active). The AC50 [12] was 0.45 µM (active), the IC50 [13] was 0.581 µM (active) and the IC50 [14] was > 80 µM (inactive).

In the case of `CCn1c(=O)cc(SCC(=O)NCCCN2CCN(c3ccccc3F)CC2)c2ccccc21`, the EC50 [15] is reported as > 79.4 µM (inactive), the EC50 [16] is reported as 0.0169 µM (active) and the EC50 [17] is reported as 92.6 µM (inactive). The EC50 [18] was > 79.4 µM (not active), the EC50 [19] was > 79.4 µM (not active) and the IC50 [20] was > 20 µM (inactive).

For `CCOC(=O)c1sc(N)c(C#N)c1COC(=O)CNC(=O)c1cc(OC)c(OC)c(OC)c1`, the EC50 [21] was 11.1 µM (inactive).
